The results in this text go back to patent US12358875B2, “N-(phenyl)-indole-3-sulfonamide derivatives and related compounds as GPR17 modulators for treating CNS disorders such as multiple sclerosis” (UCB Pharma GMBH, priority 2019, dated 2025).

Where only a bound is given, the exact number is not on record here.

GPR17, sequence (Q13304 29-367 limits assumed): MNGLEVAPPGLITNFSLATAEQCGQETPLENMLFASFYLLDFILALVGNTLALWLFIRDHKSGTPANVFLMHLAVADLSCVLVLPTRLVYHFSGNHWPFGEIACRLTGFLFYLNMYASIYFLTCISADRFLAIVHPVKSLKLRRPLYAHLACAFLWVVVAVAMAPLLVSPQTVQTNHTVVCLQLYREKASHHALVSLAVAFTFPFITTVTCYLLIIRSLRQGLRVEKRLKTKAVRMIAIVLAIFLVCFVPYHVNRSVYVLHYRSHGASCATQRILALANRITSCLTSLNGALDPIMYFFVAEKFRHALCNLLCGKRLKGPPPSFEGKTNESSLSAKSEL

The assay addresses GPR17 (Homo sapiens, UniProt Q13304). The experiment in a line: cAMP accumulation functional assay (HTRF), Schild analysis against MDL29,951 in CHO hGPR17. It is filed as cell-based. Details: host or cells: Flp-In T-REx CHO. Conditions: CHO hGPR17, Schild analysis vs MDL29,951, 5 μM forskolin; read-out: cAMP assay pA2 (converted). The procedure: Flp-In T-REx CHO cells stably expressing human GPR17 receptor (CHO hGPR17) from Evi Kostenis' lab (Bonn University, Germany) were cultured at 37° C. in a humidified atmosphere of 5% CO2. Cells were grown in DMEM with Nutrient Mixture F-12 supplemented with hygromycin B (500 μg/ml) and blasticidin (30 μg/ml). Expression from the Flp-In locus was induced by treatment with doxycycline (1 μg/ml) for 16-20 h prior assays.
GPR17 activation can also recruit Gi-type G-protein signaling, resulting in a decrease of intracellular cyclic adenosine monophosphate (cAMP). Intracellular cAMP changes can be measured using the HTRF cAMP dynamic assay kit from CisBio (Codolet, France). Using homogenous time-resolved fluorescence technology (HTRF), the assay is based on competition between native cAMP produced by cells and cAMP labelled with the dye d2. The tracer binding was determined by an anti-cAMP antibody labeled with cryptate.
CHO hGPR17 were detached with PBS containing EDTA and dispatched in black 384-well plates with 5,000 cells per well. Cells were first incubated for 30 minutes at room temperature in HBSS Hepes (pH 7.4) containing vehicle or varying concentrations of test GPR17 antagonist/inverse agonist compounds. Then, a dose response curve of MDL29,951 GPR17 agonist (typically from 10^−5M to 10^−10M) was added on vehicle and on each test GPR17 antagonist/inverse agonist compound concentration in a final volume of 20 μL HBSS Hepes buffer (pH 7.4) containing 1% DMSO, 5 μM forskolin and 0.1 mM IBMX. After 60 minutes incubation at room temperature, the reaction is terminated and the cells lysed by adding the d2 detection reagent and the cryptate reagent in 10 μL lysis buffer each according to manufacturer's instructions. After 60 minutes incubation, changes in cAMP concentrations are measured according to manufacturer's instructions using an Envision plate reader with laser excitation. All incubations were performed in duplicate. Data was analyzed using GraphPad Prism software using the 4-parameter logistic equation to measure MDL29,951 pEC50s in absence and presence of GPR17 antagonist/inverse agonist test compounds. Dose ratio (DR) were plotted against antagonist concentrations and Schild analysis provided estimated affinity pA2 of GPR17 antagonist/inverse agonist test compounds.
The activities of the Example compounds tested are depicted in the table below. The activity ranges A, B and C refer to pA2 values in the cAMP assay as follows: “A”: pA2 6.5≤x<7.5, “B”: pA2 7.5≤x<8.5, “C”: 8.5≤pA2.
A general note: Changes in cAMP serve as a functional read-out for many G protein-coupled receptors.
As to `Cn1cc(S(=O)(=O)Nc2cc(F)c(Br)cc2F)c2ccc(Cl)nc21` [Example I-3, N-(4-bromo-2,5-difluorophenyl)-6-chloro-1-methylpyrrolo[2,3-b]pyridine-3-sulfonamide], the Kb was 3.16 to 31.6 nM.

In the case of `Cn1cc(S(=O)(=O)Nc2cc(F)c(OC(F)F)cc2F)c2ccc(Cl)nc21` [Example I-4, 6-chloro-N-[4-(difluoromethoxy)-2,5-difluorophenyl]-1-methylpyrrolo[2,3-b]pyridine-3-sulfonamide], the Kb is 3.16 to 31.6 nM.

As to `O=S(=O)(Nc1cc(F)c(OC(F)F)cc1F)c1cn(CC(F)F)c2nc(Cl)ccc12` [Example I-5, 6-chloro-1-(2,2-difluoroethyl)-N-[4-(difluoromethoxy)-2,5-difluorophenyl]pyrrolo[2,3-b]pyridine-3-sulfonamide], the Kb was 31.6 to 316 nM.

As for `O=S(=O)(Nc1cc(F)c(Br)cc1F)c1cn(CC(F)F)c2nc(Cl)ccc12` [Example I-6, N-(4-bromo-2,5-difluorophenyl)-6-chloro-1-(2,2-difluoroethyl)pyrrolo[2,3-b]pyridine-3-sulfonamide], the Kb was 31.6 to 316 nM.

As for `O=S(=O)(Nc1cc(F)c(Br)cc1F)c1cn(CC(F)CO)c2cc(Cl)ccc12` (stereo not drawn) [Example I-7, N-(4-bromo-2,5-difluorophenyl)-6-chloro-1-(2-fluoro-3-hydroxypropyl)indole-3-sulfonamide], the Kb is 3.16 to 31.6 nM.

As for `O=S(=O)(Nc1cc(F)c(Br)cc1F)c1cn(CC(F)CO)c2nc(Cl)ccc12` (stereo not drawn) [Example I-8, N-(4-bromo-2,5-difluorophenyl)-6-chloro-1-(2-fluoro-3-hydroxypropyl)pyrrolo[2,3-b]pyridine-3-sulfonamide], the Kb was 31.6 to 316 nM.

On to `COc1nc(NS(=O)(=O)c2cn(CCO)c3cc(Cl)ccc23)ccc1Br` [Example I-9, N-(5-bromo-6-methoxypyridin-2-yl)-6-chloro-1-(2-hydroxyethyl)indole-3-sulfonamide], for which the Kb was 31.6 to 316 nM.

Take `O=S(=O)(Nc1cc(F)c(Br)cc1F)c1cn(CCO)c2cc(Cl)ccc12` [Example I-10, N-(4-bromo-2,5-difluorophenyl)-6-chloro-1-(2-hydroxyethyl)indole-3-sulfonamide]: the Kb was 3.16 to 31.6 nM.

On to `O=C(O)Cn1cc(S(=O)(=O)Nc2cc(F)c(Br)cc2F)c2ccc(Cl)cc21` [Example I-11, 2-[3-[(4-bromo-2,5-difluorophenyl)sulfamoyl]-6-chloroindol-1-yl]acetic acid], for which the Kb is at most 3.16 nM.

Turning to `Cn1cc(S(=O)(=O)Nc2cc(F)c(Br)cc2F)c2ccc(Cl)cc21` [Example I-12, N-(4-bromo-2,5-difluorophenyl)-6-chloro-1-methylindole-3-sulfonamide], the Kb was 3.16 to 31.6 nM.

For the molecule `O=S(=O)(Nc1cc(F)c(Br)cc1F)c1cn(CCCl)c2cc(Cl)ccc12` [Example I-13, N-(4-bromo-2,5-difluorophenyl)-6-chloro-1-(2-chloroethyl)indole-3-sulfonamide], the Kb is 31.6 to 316 nM.

`O=S(=O)(Nc1cc(F)c(Br)cc1F)c1cn(CCCO)c2cc(Cl)ccc12` [Example I-14, N-(4-bromo-2,5-difluorophenyl)-6-chloro-1-(3-hydroxypropyl)indole-3-sulfonamide]: the Kb was 31.6 to 316 nM.

For the molecule `CN(C)CCn1cc(S(=O)(=O)Nc2cc(F)c(Br)cc2F)c2ccc(Cl)cc21` [Example I-15, N-(4-bromo-2,5-difluorophenyl)-6-chloro-1-[2-(dimethylamino)ethyl]indole-3-sulfonamide], the Kb is 31.6 to 316 nM.

For the molecule `O=S(=O)(Nc1cc(F)c(Br)cc1F)c1cn(CCOCCO)c2cc(Cl)ccc12` [Example I-16, N-(4-bromo-2,5-difluorophenyl)-6-chloro-1-[2-(2-hydroxyethoxy)ethyl]indole-3-sulfonamide], the Kb was 3.16 to 31.6 nM.

For the molecule `CC(=O)Cn1cc(S(=O)(=O)Nc2cc(F)c(Br)cc2F)c2ccc(Cl)cc21` [Example I-17, N-(4-bromo-2,5-difluorophenyl)-6-chloro-1-(2-oxopropyl)indole-3-sulfonamide], the Kb was 31.6 to 316 nM.

Turning to `CC(O)Cn1cc(S(=O)(=O)Nc2cc(F)c(Br)cc2F)c2ccc(Cl)cc21` (stereo not drawn) [Example I-18, N-(4-bromo-2,5-difluorophenyl)-6-chloro-1-(2-hydroxypropyl)indole-3-sulfonamide], the Kb is at most 3.16 nM.

As for `O=S(=O)(Nc1cc(F)c(Br)cc1F)c1cn(CC(O)CF)c2cc(Cl)ccc12` (stereo not drawn) [Example I-19, N-(4-bromo-2,5-difluorophenyl)-6-chloro-1-(3-fluoro-2-hydroxypropyl)indole-3-sulfonamide], the Kb is 3.16 to 31.6 nM.

For `O=S(=O)(Nc1cc(F)c(Br)cc1F)c1cn(CC(O)C(F)(F)F)c2cc(Cl)ccc12` (stereo not drawn) [Example I-20, N-(4-bromo-2,5-difluorophenyl)-6-chloro-1-(3,3,3-trifluoro-2-hydroxypropyl)indole-3-sulfonamide], the Kb is 3.16 to 31.6 nM.

For `O=S(=O)(Nc1cc(F)c(OC(F)F)cc1F)c1cn(CCO)c2cc(Cl)ccc12` [Example I-21, 6-chloro-N-[4-(difluoromethoxy)-2,5-difluorophenyl]-1-(2-hydroxyethyl)indole-3-sulfonamide], the Kb is 3.16 to 31.6 nM.

For the molecule `Cn1cc(S(=O)(=O)Nc2cc(F)c(OC(F)F)cc2F)c2ccc(Cl)cc21` [Example I-22, 6-chloro-N-[4-(difluoromethoxy)-2,5-difluorophenyl]-1-methylindole-3-sulfonamide], the Kb was 3.16 to 31.6 nM.

With `CCn1cc(S(=O)(=O)Nc2cc(F)c(OC(F)F)cc2F)c2ccc(Cl)cc21` [Example I-23, 6-chloro-N-[4-(difluoromethoxy)-2,5-difluorophenyl]-1-ethylindole-3-sulfonamide], the Kb was 31.6 to 316 nM.

In the case of `O=S(=O)(Nc1cc(F)c(OC(F)F)cc1F)c1cn(CCF)c2cc(Cl)ccc12` [Example I-24, 6-chloro-N-[4-(difluoromethoxy)-2,5-difluorophenyl]-1-(2-fluoroethyl)indole-3-sulfonamide], the Kb was 3.16 to 31.6 nM.

In the case of `CCCn1cc(S(=O)(=O)Nc2cc(F)c(OC(F)F)cc2F)c2ccc(Cl)cc21` [Example I-25, 6-chloro-N-[4-(difluoromethoxy)-2,5-difluorophenyl]-1-propylindole-3-sulfonamide], the Kb is 31.6 to 316 nM.

In the case of `COCCn1cc(S(=O)(=O)Nc2cc(F)c(OC(F)F)cc2F)c2ccc(Cl)cc21` [Example I-26, 6-chloro-N-[4-(difluoromethoxy)-2,5-difluorophenyl]-1-(2-methoxyethyl)indole-3-sulfonamide], the Kb is 31.6 to 316 nM.

Take `O=S(=O)(Nc1cc(F)c(OC(F)F)cc1F)c1cn(CC(O)CO)c2cc(Cl)ccc12` (stereo not drawn) [Example I-27, 6-chloro-N-[4-(difluoromethoxy)-2,5-difluorophenyl]-1-(2,3-dihydroxypropyl)indole-3-sulfonamide]: the Kb is at most 3.16 nM.

Turning to `O=S(=O)(Nc1cc(F)c(Br)cc1F)c1cn(CC(O)CO)c2cc(Cl)ccc12` (stereo not drawn) [Example I-28, N-(4-bromo-2,5-difluorophenyl)-6-chloro-1-(2,3-dihydroxypropyl)indole-3-sulfonamide], the Kb is 3.16 to 31.6 nM.

For the molecule `O=S(=O)(Nc1cc(F)c(Br)cc1F)c1cn(CC(O)CO)c2nc(Cl)ccc12` (stereo not drawn) [Example I-29, N-(4-bromo-2,5-difluorophenyl)-6-chloro-1-(2,3-dihydroxypropyl)pyrrolo[2,3-b]pyridine-3-sulfonamide], the Kb is 3.16 to 31.6 nM.
